Experimental data published in PubChem BioAssay (NCI).
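A five-concentration, 48-hour dose response in 96-well plates underlies each endpoint, interpolated linearly between surrounding concentrations. GI50: concentration for 50% inhibition of growth. TGI is the concentration that stops growth completely.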

Key:
Assay in all cases: NCI-60 cell line screen, 48 h
[1] = test system: 786-0 renal
[2] = test system: ACHN renal
[3] = test system: HCT-15 colon
[4] = test system: M14 melanoma
[5] = test system: OVCAR-3 ovarian
[6] = test system: SK-MEL-2 melanoma
[7] = test system: SNB-19 CNS
[8] = test system: SR leukemia
[9] = test system: T-47D breast
[10] = test system: UACC-257 melanoma

SMILES | GI50 [1] [µM] | TGI [1] [µM] | GI50 [2] [µM] | TGI [2] [µM] | GI50 [3] [µM] | TGI [3] [µM] | GI50 [4] [µM] | TGI [4] [µM] | GI50 [5] [µM] | TGI [5] [µM] | GI50 [6] [µM] | TGI [6] [µM] | GI50 [7] [µM] | TGI [7] [µM] | GI50 [8] [µM] | TGI [8] [µM] | GI50 [9] [µM] | TGI [9] [µM] | GI50 [10] [µM] | TGI [10] [µM]
COc1ccc(OC)c(-c2nc3sc(C)cn3c2/C=C2\C(=O)N(C)c3ccccc32)c1 | 27.6 | 74.6 | 28.7 | > 100 | 19.8 | 81.6 | 25.4 | 80.3 | 23.6 | 62.3 | 15.6 | 43.6 | 26.4 | 94.7 | 1.89 | 18.5 | 30.8 | 73.7 | 29.5 | 82.6
COC(=O)C[C@@H]1CC=CC(=O)/C1=C(O)/C=C/c1ccccc1 | 0.519 | 1.56 | 0.268 | 0.743 | 0.294 | 1.15 | 0.578 | 1.69 | 0.3 | 0.93 | 1.63 | 3.56 | 1.57 | 4.84 | 0.275 | – | 0.549 | 2.66 | 1.34 | 2.86
Cc1cc(O)cc(-c2nn(C)cc2-c2cc(N3CCOCC3)nc(-c3cccnc3)n2)c1 | 2.52 | 11.6 | 3.68 | 41.2 | 2.63 | 23.4 | 3.55 | 15.8 | 2.48 | 12.5 | 6.28 | 31.1 | 4.84 | > 100 | 1.22 | > 100 | 2.82 | 39 | 13.4 | 35.4
COc1ccc2cn3c4ccc(O)cc4[nH]c(=O)c3c2c1 | 0.278 | 13.4 | 0.0762 | 15.9 | 0.0438 | 13.2 | 0.08 | 13.7 | 0.0474 | 7.08 | 0.0602 | 12.8 | 0.206 | 18.7 | 0.0556 | 3.87 | 0.573 | 24.1 | 8.08 | 24.2
COc1ccc2c(ccc3oc([N+](=O)[O-])cc32)c1 | 0.218 | 0.667 | 0.0274 | 0.232 | 0.221 | 1.53 | 0.0454 | 0.186 | 0.225 | 0.57 | 0.107 | 0.292 | 0.294 | 2.96 | 0.0748 | 17.6 | 0.448 | 8.05 | 0.137 | 0.43
Cc1nc2sc(C(=O)Nc3cccc(Cl)c3C)c(N)c2cc1C(O)c1ccccc1 (stereo not drawn) | 0.0667 | 9.51 | 0.0881 | 14.8 | 0.033 | 10.5 | 0.0291 | 13.1 | 0.0351 | 1.14 | 0.0754 | 12.6 | 0.0604 | 29.1 | 0.021 | 16.6 | 0.0396 | 57.6 | 1.27 | 22.9
CCCCc1n(Cc2ccc3ccccc3n2)cc[n+]1Cc1ccc2ccccc2c1 | 1.6 | 3.89 | 2.89 | 8.8 | 5.07 | 18.1 | 0.769 | 2.45 | 0.541 | 2.03 | 0.977 | 2.64 | 0.605 | 2.12 | 0.456 | 1.95 | 0.337 | 2.57 | 0.438 | 1.62
COc1ccc(/C=N/C2=NNC(C)(c3ccccc3O)N2C(Cc2c[nH]c3ccccc23)C(=O)O)cc1 (stereo not drawn) | 3.36 | 13 | 3.02 | 14.7 | 2.81 | 11.8 | 2.35 | 8.77 | 3.05 | 11.7 | 2.27 | 5.81 | 3.76 | 14.6 | 2.76 | 12.4 | 1.55 | 12.2 | 3.53 | 10.8
COC(=O)[C@]12CC[C@@H](C)[C@H](C)[C@@H]1C1=CC[C@@H]3[C@@]4(C)C(C=O)=C[C@@](C)(COC(=O)c5ccco5)C4=CC[C@@]3(C)[C@]1(C)CC2 | 2.97 | 9.17 | 0.118 | 2.56 | 1.91 | 4.09 | 0.104 | 6.93 | 2.17 | 4.76 | 0.273 | 0.743 | 5.12 | > 100 | 2.12 | 6.66 | 2.68 | 38.2 | 0.108 | 0.65
Cn1c(=O)c2[nH]c(CCS)nc2n(C)c1=O | – | > 100 | – | > 100 | – | > 100 | – | > 100 | – | > 100 | – | > 100 | – | > 100 | – | > 100 | – | > 100 | – | > 100
COc1ccc(-c2cncn2-c2ccc(-c3nc4cc(OC)c(OC)c(OC)c4s3)cc2)cc1N | 5.73 | > 100 | 5.59 | > 100 | 4.02 | > 100 | 5.91 | > 100 | 5.18 | > 100 | 6.04 | > 100 | > 100 | > 100 | 3.43 | > 100 | 3.02 | > 100 | > 100 | > 100
Fc1cccc(-c2nc(-c3c[nH]c4ncccc34)cs2)c1 | > 100 | > 100 | 9.68 | > 100 | > 100 | > 100 | 5.61 | > 100 | 60.5 | > 100 | > 100 | > 100 | 22.6 | > 100 | > 100 | > 100 | 2.34 | > 100 | > 100 | > 100
Cn1c(=S)c2[nH]c(SCc3cccnc3)nc2n(C)c1=O | – | > 100 | – | > 100 | – | > 100 | – | > 100 | – | > 100 | – | > 100 | – | > 100 | – | > 100 | – | > 100 | – | > 100
O=C1Nc2cc(-c3ccc(O)cc3)ccc2/C1=C/c1ccc[nH]1 | 0.396 | 4.04 | 0.0504 | 3.6 | 0.0451 | > 35.3 | 0.0974 | > 100 | 0.348 | 3.99 | 0.647 | > 25.7 | 1.06 | > 100 | 0.0309 | > 33.7 | 0.0591 | – | 0.743 | > 100
CN1CCN(c2ccc(NC(=O)c3cncnc3Nc3ccc4c(ccn4Cc4cccc(F)c4)c3)cc2)CC1 | 0.66 | 1.37 | 1.73 | 5.89 | 0.943 | 4 | 0.616 | 1.22 | 4.08 | 8.48 | 5.2 | 10.7 | 4.42 | 8.96 | 0.655 | 1.96 | 2.03 | 8.15 | 0.68 | 1.45
Nc1ncc(-c2ccc3ncnc(N4CCc5cc(F)c(Cl)cc54)c3c2)cc1C(F)(F)F | 1.04 | 4.79 | 0.784 | > 100 | 1.57 | > 100 | 2.74 | > 100 | 1.39 | > 100 | 2.84 | > 100 | 2.62 | > 100 | 1.67 | > 100 | 1.07 | > 100 | 2.08 | > 100
COC(=O)C1OC(SCCN)C(O)C(O)C1O (stereo not drawn) | – | > 100 | – | > 100 | – | > 100 | – | > 100 | – | > 100 | – | > 100 | – | > 100 | – | > 100 | – | > 100 | – | > 100
CCN1Cc2c(/C=C/c3ccccc3)nc3ccc(OC)cc3c2N(c2cccc(Cl)c2)C1 | 3.17 | 8.83 | 1.61 | 3.08 | 1.74 | 3.63 | 2.04 | 4 | 1.62 | 3.08 | 1.72 | 3.56 | 2.13 | 5.15 | 1.71 | 5.53 | 1.74 | 4.18 | 1.75 | 4.22
Clc1ccc2c(NCCNc3nc(N4CCCCC4)nc4ccccc34)ccnc2c1 | 1.31 | 2.78 | 1.79 | 3.59 | 1.26 | 3.93 | 1.82 | 3.61 | 1.75 | 3.65 | 1.79 | 3.83 | 3.06 | 15.6 | 1.23 | 4.53 | 2.17 | 6.11 | 1.94 | 3.77
COc1cc2c3c(n(CCCN=[N+]=[N-])c(=O)c2cc1OC)-c1ccc(NC(C)=O)cc1C3=O | > 50 | > 50 | > 50 | > 50 | > 50 | > 50 | > 50 | > 50 | > 50 | > 50 | > 50 | > 50 | > 50 | > 50 | 4.85 | > 50 | > 50 | > 50 | > 50 | > 50
COC(=O)C(Br)(C(=O)OC)C(Br)C(Br)C(Br)c1ccccc1 (stereo not drawn) | 2.72 | 6.7 | 2.2 | 5.15 | 2.15 | 6.15 | 2.47 | 6.2 | 1.72 | 3.11 | 14.4 | 27.8 | 14.9 | 28.2 | 2.8 | 9.71 | 2.47 | 8.06 | 1.88 | 4.4
N#CC1=C(N)Oc2c(ccc3cccnc23)C1c1ccccc1 (stereo not drawn) | – | > 100 | – | > 100 | – | > 100 | – | > 41.5 | – | 2.95 | – | > 27 | – | > 74.1 | – | 29 | 1.45 | 65.6 | – | > 79.4
O=C(Oc1c(Cl)c(Cl)c(Cl)c(Cl)c1Cl)C1CCCN1C(=O)OCc1ccccc1 (stereo not drawn) | 3.94 | 14.2 | 2.62 | 8.09 | 3.08 | 11.7 | 4 | 16.4 | 3.27 | 9.84 | 2.28 | 4.49 | 3.23 | 13.2 | 3.82 | 15.7 | 2.79 | 11.3 | 4.29 | 17.7
C=C(C)[C@@H]1CC[C@]2(COC(=O)c3ccccc3C(=O)O)CC[C@]3(C)[C@H](CC[C@@H]4[C@@]5(C)CC[C@H](OC(=O)c6ccccc6C(=O)O)C(C)(C)[C@@H]5CC[C@]43C)[C@@H]12 | 31.6 | > 100 | 28 | > 100 | 31.3 | > 100 | 44.9 | > 100 | 17.5 | 49.3 | 20.6 | 54.1 | 23.2 | > 100 | 27.3 | 74.1 | 19.7 | 75.8 | 71.3 | > 100
NC(=O)/C=C/c1c[nH]c2nccnc12 | – | > 100 | – | > 53.6 | – | 55.7 | – | 30.5 | – | > 39.5 | – | 3.95 | – | > 16.7 | – | > 100 | – | 23.5 | – | 52.8
COc1ccc(-n2nc(C(=O)NCC(=O)Nc3nc4cc(OC)ccc4s3)c3ccccc3c2=O)cc1 | 1.96 | 8.19 | 1.1 | 8.7 | > 24 | > 100 | 2.37 | > 42.9 | 0.85 | – | 1.69 | 5.12 | 1.84 | 6.07 | > 20.5 | > 100 | 0.927 | 5.81 | 1.28 | 5.07
